Where two headings read alike, the source gives them in different places.
Assays:
HCC1806 TNBC cell line = experiment: MTT survival assay HCC1806; type: cell-based
Method: (§1) Indicated TNBC cell lines were detached and resuspended at 120,000 cells/ml and added into each well of a transparent 384-well plate in the final volume of 20 µl/well. The cells were maintained in DMEM containing 10% FBS at 37°C, 5% CO2 overnight. Next day, the medium in each well was replaced by 40 μl of the fresh one containing the indicated concentrations of compounds. In case of drug combination experiments, each compound dilution was delivered in corresponding well in 20 μl of medium. […] After incubation for 3–4 days, depending on the cell line, the medium in each well was replaced by 25 μl of 0.5 mg/ml Thiazolyl blue solution in 1xPBS following by incubation for 3 h at 37°C. Then the solution was removed and 25 μl DMSO was added into each well. Absorbance at 510 nm was measured in a Tecan Infinite M200 PRO plate reader.

[1] = system: MDA-MB-468 TNBC cell line; experiment: MTT survival assay MDA-MB-468; type: cell-based; conditions: Table S2
Method: as §1

[2] = system: β-catenin-dependent Wnt-pathway; experiment: TopFlash luciferase reporter assay, CHIR99021-stimulated, HCC1395; type: cell-based; conditions: for TopFlash activity in words: CHIR99021; for Emax: read-out: HCC1395 TopFlash Efficacy
Text: Both stimulations abolish formation of the destruction complex, a multiprotein complex consisting of Axin, adenomatous polyposis coli (APC), glycogen synthase kinase three beta (GSK3β), and casein kinase one alpha (CK1α). Upon inactivation of the complex, β-catenin accumulates in the cytoplasm and translocates into the nucleus where it interacts with transcription factors. These downstream events are quantified by a Luciferase transcription-based readout assay (TopFlash assay).

BT-20 TNBC cell line = experiment: MTT survival assay BT-20; type: cell-based
Method: as §1

HCC1395 TNBC cell line = experiment: MTT survival assay HCC1395; type: cell-based
Method: as §1

HCC1395 cells = experiment: Cytotoxicity by Renilla luciferase under CMV promoter
Method: (§2) The simplicity of the scaffold combined with synthetic accessibility allows building a library of compounds and performing structure activity relationship (SAR) studies of the three main parts of the molecule: the top part, the linker and the core (Figure 2).
(§3) The synthesized compounds were used to explore SAR of three defined areas of investigation (Figure 2). All compounds were tested in the HCC1395 TNBC cell line using the GSK3β inhibitor to induce β-catenin signaling since 4a acted downstream of GSK3β (Figure 2). Both inhibition of β-catenin signaling measured by the TopFlash reporter and cytotoxicity measured by the Renilla reporter were assessed.
(§4) The Wnt3a or CHIR99021-stimulated luciferase activity in HCC1395 TNBC cell line stably transfected with the TopFlash reporter was analyzed essentially as described for the BT-20 TNBC cell line ([Shaw et al., 2019b]; [Koval et al., 2021]). Reporter cells were seeded at 10,000 cells/well in a white opaque 384-well plate in the final volume of 20 μl of DMEM medium supplemented with 10% FCS. The cells were maintained incubated at 37°C, 5% CO2 overnight for attachment. Subsequently, they were transfected by a plasmid encoding constitutively expressed Renilla luciferase under the CMV promoter overall as described in the manufacturer’s protocol using 12 μg/ml of DNA and 40 μl/ml XtremeGENE nine reagent. The next day, the medium in each well was replaced with a 10 μl of fresh medium containing compound of interest, and, after 1 h of preincubation with the compounds, additional 10 μl of medium supplemented with Wnt3a [purified as described ([Willert et al., 2003]; [Koval and Katanaev, 2011])] or CHIR99021 were added creating respective final concentrations of 2.5 μg/ml or 5 μM of each. In case of other signal transduction reporters, no additional stimulation was performed. Compound dilutions were prepared by serial dilution in DMSO and diluted with the amount of medium necessary to obtain their final concentrations indicated on the figures and tables and maintain concentration of DMSO of 0.5% in all assay points. After overnight incubation, the supernatant in each well was removed, and the luciferase activity was measured as described ([Dyer et al., 2000]; [Huber et al., 2021]; [Pellissier et al., 2021]). The culture medium was completely removed from all wells of the plate. Finally, the luciferase activity of the firefly and Renilla luciferases was detected sequentially in individual wells of a 384-well plate through injection of corresponding measurement solutions and immediate reading (400 ms integration time) in Infinite M Plex multifunctional plate reader with injection module.

[3] = system: non-cancerous breast epithelial cell line MCF10a; experiment: MTT survival assay MCF10a; type: cell-based; conditions: for selectivity over the control cells (difference in IC50, MCF10a vs HCC1395): MTT IC50 ratio MCF10a / HCC1395
Method: as §1

[4] = system: MDA-MB-231 TNBC cell line; experiment: MTT survival assay MDA-MB-231; type: cell-based
Method: as §1

in vitro = conditions: human, HCC1395 Cytotoxicity IC50
Method: as §2, §3, §4

[5] = Homo sapiens, HCC1806, Table S2, read-out: MTT HCC1806 IC50
[6] = Homo sapiens, HCC1395, HCC1395, stimulation with CHIR99021 (GSK3β inhibitor)
[7] = Homo sapiens, HCC1395, HCC1395, stimulation with CHIR99021 (GSK3β inhibitor), read-out: HCC1395 TopFlash IC50
[8] = Homo sapiens, BT-20, Table S2, read-out: MTT BT-20 IC50
[9] = Homo sapiens, HCC1395, Table S2, read-out: MTT HCC-1395 IC50
[10] = Homo sapiens, MCF-10A, Table S2, read-out: MTT MCF10 IC50
[11] = Homo sapiens, MDA-MB-231, Figure 3B heatmap, read-out: IC50, μM (MDA-MB-231)
[12] = Homo sapiens, MDA-MB-231, Table S2, read-out: MTT MDA-MB-231 IC50
[13] = Homo sapiens, MCF-10A, Figure 3B heatmap, read-out: IC50, μM (MCF10)

Molecule	MTT MDA-MB-231 plateau ([4]; Table S2)	IC50 (HCC1806 TNBC cell line; [5])	IC50 ([1]; Homo sapiens, MDA-MB-468)	Emax [2, 6]	IC50 [2, 7]	IC50 (BT-20 TNBC cell line; [8])	IC50 (HCC1395 TNBC cell line; [9])	GSK HCC1395 Renilla Comments (HCC1395 cells)	IC50 (in vitro)	IC50 [3, 10]	MTT MCF10 Comments ([3]; Table S2)	IC50 [4, 11]	IC50 [4, 12]	other results
2-chloro-N-(2-methoxybenzyl)quinazolin-4-amine [Compound 8a]	53.88	–	–	–	–	–	–	–	–	–	–	–	–	MTT HCC1806 plateau (HCC1806 TNBC cell line; Table S2): 100; IC50 (HCC1806 TNBC cell line; Table S2, read-out: MTT HCC1806 IC50): 22.7 µM; IC50 [1]: 3.19 µM; MTT MDA-MB-468 plateau [1]: 69.23; TopFlash activity in words ([2]; HCC1395): no longer active; GSK HCC1395 plateau ([2]; Table S2): 100; IC50 ([2]; Table S2, TopFlash, GSK3β inhibitor stimulation, read-out: GSK HCC1395 IC50): 42.8 µM; MTT BT-20 plateau (BT-20 TNBC cell line; Table S2): 100; IC50 (BT-20 TNBC cell line; Table S2, read-out: MTT BT-20 IC50): 2.96 µM; MTT HCC1395 plateau (HCC1395 TNBC cell line; Table S2): 100; IC50 (HCC1395 TNBC cell line; Table S2, read-out: MTT HCC-1395 IC50): 7.83 µM; IC50 (HCC1395 cells; read-out: HCC1395 Cytotoxicity IC50, Renilla luciferase, HCC1395): > 100 µM; selectivity over the control cells (difference in IC50, MCF10a vs HCC1395) [3]: less than 3 fold; MTT MCF10 plateau ([3]; Table S2): 100; IC50 ([3]; Table S2, read-out: MTT MCF10 IC50): 10.5 µM; IC50 ([4]; Table S2, read-out: MTT MDA-MB-231 IC50): 2.65 µM
COc1cccc(CNc2ncnc3sccc23)c1 [Compound 4c, N-(3-methoxybenzyl)thieno[2,3-d]pyrimidin-4-amine]	100	> 50 µM	1.61 µM	58.6 ± 22.8%	4.96 ± 1.65 µM	2.89 µM	1.08 µM	Non-toxic	> 50 µM	> 50 µM	Inactive	> 10 µM	9.37 µM	MTT HCC1806 Comments (HCC1806 TNBC cell line; Table S2): Inactive; IC50 (HCC1395 cells; human): > 100 µM
Fc1ccc(CNc2ncnc3sccc23)cc1 [Compound 4g, N-(4-fluorobenzyl)thieno[2,3-d]pyrimidin-4-amine]	100	2.37 µM	1.46 µM	78.6 ± 29.8%	4.15 ± 0.91 µM	1.63 µM	1.96 µM	Non-toxic	> 50 µM	> 10 µM	Inactive	–	25.4 µM	fold improvement in the activity compared to 4a ([2]; TopFlash IC50 vs 4a): 2 fold
Clc1cccc(CNc2ncnc3sccc23)c1 [Compound 4i, N-(3-chlorobenzyl)thieno[2,3-d]pyrimidin-4-amine]	100	2.2 µM	1.44 µM	56.2 ± 4%	8.4 ± 5.01 µM	5.24 µM	1.74 µM	Non-toxic	> 50 µM	> 10 µM	Inactive	–	18.7 µM	–
c1ccc(CCNc2ncnc3sccc23)cc1 [Compound 5g, N-phenethylthieno[2,3-d]pyrimidin-4-amine]	–	> 50 µM	> 50 µM	89%	2.64 ± 1.22 µM	> 50 µM	4.59 µM	Non-toxic	> 50 µM	> 50 µM	–	> 10 µM	> 50 µM	IC50 [3, 13]: > 10 µM
c1ccc(CCCNc2ncnc3sccc23)cc1 [Compound 5h, N-(3-phenylpropyl)thieno[2,3-d]pyrimidin-4-amine]	–	37.1 µM	> 50 µM	–	> 50 µM	36.8 µM	–	Non-toxic	> 50 µM	> 50 µM	–	> 10 µM	> 50 µM	IC50 (HCC1806 TNBC cell line; Homo sapiens, HCC1806, Figure 3B heatmap, read-out: IC50, μM (HCC1806)): > 10 µM; TopFlash activity in words ([2]; HCC1395): inactive; IC50 (BT-20 TNBC cell line; Homo sapiens, BT-20, Figure 3B heatmap, no activity up to maximal tested concentration, read-out: IC50, μM (BT20)): > 50 µM; IC50 (HCC1395 TNBC cell line; Homo sapiens, HCC1395, MTT, Figure 3B heatmap and text, read-out: IC50, μM (HCC1395)): > 50 µM; IC50 [3, 13]: > 10 µM; selectivity over the control cells (difference in IC50, MCF10a vs HCC1395) [3]: less than 3 fold
Clc1ccccc1CCNc1ncnc2sccc12 [Compound 5k, N-(2-chlorophenethyl)thieno[2,3-d]pyrimidin-4-amine]	–	> 50 µM	> 50 µM	93.2 ± 10.6%	42.9 ± 50.2 µM	> 50 µM	4.24 µM	Non-toxic	> 50 µM	43.6 µM	–	> 10 µM	> 50 µM	–
Clc1cccc(CCNc2ncnc3sccc23)c1 [Compound 5l, N-(3-chlorophenethyl)thieno[2,3-d]pyrimidin-4-amine]	–	38.1 µM	37 µM	77.5 ± 16.3%	1.79 µM	15 µM	6.15 µM	Non-toxic	> 50 µM	> 50 µM	–	> 10 µM	> 50 µM	IC50 ([2]; HCC1395, stimulation with CHIR99021 (GSK3β inhibitor), read-out: HCC1395 TopFlash IC50): 3.07 ± 2.39 µM

Source: publication PMC9649909, “Wnt-pathway inhibitors with selective activity against triple-negative breast cancer: From thienopyrimidine to quinazoline inhibitors” (Frontiers in Pharmacology, 2022)
